Laboratory results reported in the NIST ThermoML archive (doi:10.1021/je300280s).
Several values for one entry are separate records, joined by “and”; a condition that tells them apart may be missing. Equal entries are not always repeated.

Assays:
[1] = 101.33 kPa, Liquid, Vibrating tube method
[2] = excess molar enthalpy (molar enthalpy of mixing); xn = mol fraction of the nth substance listed; conditions: 101.3 kPa, Liquid, Flow calorimetry
[3] = xn = mol fraction of the nth substance listed; conditions: 101.3 kPa, Liquid, Vibrating tube method

CCCOC(C)=O [propyl ethanoate]
[1]
Conditions | mass density [kg/m3]
288.15 K | 893.2
298.15 K | 882.05
308.15 K | 870.87
318.15 K | 859.52

CC/C=C\CCO [(Z)-3-hexen-1-ol]
[1]
Conditions | mass density [kg/m3]
288.15 K | 856.22
293.15 K | 852.44
298.15 K | 848.64
308.15 K | 840.99
318.15 K | 833.27

CC(=O)C(C)=O [2,3-butanedione]
[1]
Conditions | mass density [kg/m3]
288.15 K | 998.09
293.15 K | 991.78
298.15 K | 985.5
303.15 K | 979.18
308.15 K | 972.83
313.15 K | 966.48
318.15 K | 960.08

CCCC(=O)OC [methyl butanoate]
[1]
Conditions | mass density [kg/m3]
288.15 K | 903.34
293.15 K | 897.88
298.15 K | 892.38
303.15 K | 886.86
308.15 K | 881.3
313.15 K | 875.74
318.15 K | 870.14

CC/C=C\CCO [(Z)-3-hexen-1-ol] + O
Conditions | excess molar enthalpy, [2] | mass density, [3]
288.15 K, x1 = 0.000611 | -0.00142 kcal/mol | 998.763 kg/m3
288.15 K, x1 = 0.000916 | -0.0021 kcal/mol | 998.596 kg/m3
288.15 K, x1 = 0.001221 | -0.00278 kcal/mol | 998.432 kg/m3
288.15 K, x1 = 0.001526 | -0.00344 kcal/mol | 998.27 kg/m3
288.15 K, x1 = 0.001831 | -0.0041 kcal/mol | 998.106 kg/m3
288.15 K, x1 = 0.002135 | -0.00473 kcal/mol | 997.95 kg/m3
298.15 K, x1 = 0.00061 | -0.000963 kcal/mol | 996.68 kg/m3
298.15 K, x1 = 0.000915 | -0.00143 kcal/mol | 996.493 kg/m3
298.15 K, x1 = 0.00122 | -0.00187 kcal/mol | 996.319 kg/m3
298.15 K, x1 = 0.001524 | -0.00231 kcal/mol | 996.139 kg/m3
298.15 K, x1 = 0.001828 | -0.00275 kcal/mol | 995.963 kg/m3
298.15 K, x1 = 0.002132 | -0.00316 kcal/mol | 995.788 kg/m3
308.15 K, x1 = 0.000306 | -0.00028 kcal/mol | 993.834 kg/m3
308.15 K, x1 = 0.000611 | -0.000528 kcal/mol | 993.642 kg/m3
308.15 K, x1 = 0.000612 | -0.000533 kcal/mol | 993.637 kg/m3
308.15 K, x1 = 0.000916 | -0.000786 kcal/mol | 993.442 kg/m3
308.15 K, x1 = 0.000918 | -0.000789 kcal/mol | 993.441 kg/m3
308.15 K, x1 = 0.001221 | -0.00102 kcal/mol | 993.253 kg/m3
308.15 K, x1 = 0.001224 | -0.00102 kcal/mol | 993.253 kg/m3
308.15 K, x1 = 0.001526 | -0.00125 kcal/mol | 993.064 kg/m3
308.15 K, x1 = 0.001529 | -0.00126 kcal/mol | 993.059 kg/m3
308.15 K, x1 = 0.001831 | – | 992.912 kg/m3
308.15 K, x1 = 0.001835 | -0.00146 kcal/mol | 992.883 kg/m3
318.15 K, x1 = 0.000611 | -0.000141 kcal/mol | 989.794 kg/m3
318.15 K, x1 = 0.000612 | -0.000139 kcal/mol | 989.796 kg/m3
318.15 K, x1 = 0.000917 | -0.000198 kcal/mol and -0.000194 kcal/mol | 989.578 kg/m3 and 989.591 kg/m3
318.15 K, x1 = 0.001222 | -0.000241 kcal/mol | 989.38 kg/m3
318.15 K, x1 = 0.001223 | -0.000239 kcal/mol | 989.388 kg/m3
318.15 K, x1 = 0.001527 | -0.00028 kcal/mol | 989.183 kg/m3
318.15 K, x1 = 0.001528 | -0.000284 kcal/mol | 989.184 kg/m3
318.15 K, x1 = 0.001832 | -0.000308 kcal/mol | 988.988 kg/m3
318.15 K, x1 = 0.001833 | -0.000311 kcal/mol | 988.984 kg/m3
318.15 K, x1 = 0.002137 | – | 988.803 kg/m3 and 988.815 kg/m3
